Measurements as given in patent US9249163B2, “PDE10a inhibitors for the treatment of type II diabetes” (Janssen Pharmaceutica, NV, priority 2013, dated 2016).
Structures can show the parent of a compound that is named as a salt.

Assays:
[1] = biological target: Human recombinant PDE10A2 (Homo sapiens (Human), UniProt Q9Y233); assay: In vitro hPDE10a (human recombinant PDE10A2, scintillation proximity assay); assay type: biochemical; details: human recombinant PDE10A2, 60 nM cAMP, 60 min at room temperature; read-out: hPDE10a2 IC50
[2] = biological target: Rat recombinant PDE10a (rPDE10a) (Rattus norvegicus (Rat), UniProt Q9QYJ6); assay: In vitro assay PDE10a (rat recombinant PDE10a, SPA); assay type: biochemical; details: 60 nM cAMP, 60 min at rt, read-out: rPDE10a2 IC50
Procedure, shortened: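 Rat PDE10a expressed in Sf9 cells (baculovirus) and Ni-sepharose purified. Incubated with compound for 60 min at rt in 50 mM Tris pH 7.8, 8.3 mM MgCl2, 1.7 mM EGTA with 60 nM cAMP plus 0.008 μCi ^3H-cAMP (final), 1% DMSO. Read-out by PDE SPA bead scintillation counting (cpm), no-enzyme blank.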

[3] = PDE10a-perfused brain permeability study (plasma and brain concentrations); details: male, Sprague-Dawley, rat; for Kp at 2 h: brain/plasma
Protocol: Drug administration by oral gavage, subcutaneous injection or intravenous was carried out using male Sprague Dawley rats under IACUC protocol (SH-MET3010). Male Sprague Dawley rats (Charles River) ˜300-350 g were maintained on a 4% standard rodent diet (Test Diet 5001). They are allowed ad libitum access to water and food. Room temperature was maintained at 64° F. and humidity at 30-70%.
Three animals per compound were provided a dose of 2 mg/mL in 20% HpbCD/Tris pH 8 by tail i.v. or 30 mpk p.o. or s.c. in 20% HpbCD/Tris pH 8, with PDE10a antagonists. A first blood sample was collected at 30 min via retro-orbital sinus (anesthetic by 70% CO2/30% O2) into heparinzed plasma separator tubes. The blood was centrifuged and 100 uL plasma was placed into a 96 well plate and saved on dry ice.
After the 120 min, the final blood sample was collected via retro-orbital sinus under anesthesia by IP 0.5 cc injection of a 4/1 mixture of Ketaset: AnaSed [(prepared 10 mL Ketaset (100 mg/mL Ketamine)+2.5 mL AnaSed (20 mg/mL Xylazine)]. The rats were then perfused with 400 mL heparinized saline (10,000 units/L) through the left ventricle of the heart; the brains were then removed (not including the medulla), weighed and homogenized in PBS (4 mL/g tissue). The samples were stored at −80° C. and submitted for chemical analysis of blood and brain concentrations. Endpoints of sample analysis consists of the plasma concentrations at 30 and 120 min, plus brain concentrations at 120 min.

Sequence of Rat recombinant PDE10a (rPDE10a) (Q9QYJ6 whole entry): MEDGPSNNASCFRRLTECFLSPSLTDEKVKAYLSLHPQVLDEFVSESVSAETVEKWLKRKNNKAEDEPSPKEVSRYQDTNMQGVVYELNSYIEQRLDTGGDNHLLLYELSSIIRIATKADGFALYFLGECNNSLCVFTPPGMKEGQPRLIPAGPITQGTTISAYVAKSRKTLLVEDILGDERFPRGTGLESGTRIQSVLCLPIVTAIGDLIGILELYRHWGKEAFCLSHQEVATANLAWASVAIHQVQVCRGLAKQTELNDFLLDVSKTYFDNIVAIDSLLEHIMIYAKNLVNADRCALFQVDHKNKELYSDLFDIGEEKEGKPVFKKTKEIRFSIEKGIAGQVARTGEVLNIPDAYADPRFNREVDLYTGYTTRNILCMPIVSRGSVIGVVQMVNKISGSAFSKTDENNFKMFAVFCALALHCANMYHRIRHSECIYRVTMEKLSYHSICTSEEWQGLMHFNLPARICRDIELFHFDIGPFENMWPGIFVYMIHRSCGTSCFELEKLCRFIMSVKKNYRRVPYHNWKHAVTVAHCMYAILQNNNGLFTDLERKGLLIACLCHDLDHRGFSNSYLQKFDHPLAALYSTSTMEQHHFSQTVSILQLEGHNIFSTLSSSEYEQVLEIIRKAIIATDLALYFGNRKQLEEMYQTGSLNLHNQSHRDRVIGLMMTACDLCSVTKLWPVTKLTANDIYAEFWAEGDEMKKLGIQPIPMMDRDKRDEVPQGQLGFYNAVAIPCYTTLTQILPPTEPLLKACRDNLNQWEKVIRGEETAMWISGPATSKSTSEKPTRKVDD
Sequence of Human recombinant PDE10A2 (Q9Y233 267-1055): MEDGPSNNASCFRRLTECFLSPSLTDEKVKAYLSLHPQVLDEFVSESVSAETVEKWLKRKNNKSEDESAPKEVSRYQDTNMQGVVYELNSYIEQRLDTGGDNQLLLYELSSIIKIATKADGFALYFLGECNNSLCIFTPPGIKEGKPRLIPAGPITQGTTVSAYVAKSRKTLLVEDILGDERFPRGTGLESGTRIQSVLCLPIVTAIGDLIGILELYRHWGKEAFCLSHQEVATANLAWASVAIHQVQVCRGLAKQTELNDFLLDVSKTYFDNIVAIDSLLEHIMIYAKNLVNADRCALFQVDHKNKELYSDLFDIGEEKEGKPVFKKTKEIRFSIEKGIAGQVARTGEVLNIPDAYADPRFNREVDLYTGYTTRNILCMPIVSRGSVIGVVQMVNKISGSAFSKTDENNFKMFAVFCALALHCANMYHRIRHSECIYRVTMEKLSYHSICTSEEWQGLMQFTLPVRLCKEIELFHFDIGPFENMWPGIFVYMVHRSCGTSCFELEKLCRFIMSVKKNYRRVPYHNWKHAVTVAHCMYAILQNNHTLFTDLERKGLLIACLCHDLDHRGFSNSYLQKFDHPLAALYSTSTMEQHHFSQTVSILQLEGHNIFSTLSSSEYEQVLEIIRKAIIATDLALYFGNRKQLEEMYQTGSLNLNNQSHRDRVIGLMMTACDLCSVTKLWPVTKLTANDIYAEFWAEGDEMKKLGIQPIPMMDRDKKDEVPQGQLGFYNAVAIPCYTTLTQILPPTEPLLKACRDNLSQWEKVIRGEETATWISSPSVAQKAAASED

SMILES	IC50 [1]	IC50 [2]	concentration at 2 h ([3]; brain)	Kp at 2 h [3]	concentration at 2 h ([3]; plasma)
NS(=O)(=O)N1CCC(c2cnc(N3CCOCC3)c3nc(COc4ccc5ccccc5n4)cn23)CC1 [Cpd 109, 4-(8-Morpholino-2-((quinolin-2-yloxy)methyl)imidazo[1,2-a]pyrazin-5-yl)piperidine-1-sulfonamide trifluoroacetic acid salt]	0.11 µM	0.087 µM	8.15 ng/g	0.03	0.226 µg/mL
CS(=O)(=O)NC(=O)c1ccc(-c2cnc(N3CCOCC3)c3nc(COc4ccc5ccccc5n4)cn23)cn1 [Cpd 76, N-Methanesulfonyl-5-[8-(morpholin-4-yl)-2-[(quinolin-2-yloxy)methyl]imidazo[1,2-a]pyrazin-5-yl]pyridine-2-carboxamide]	0.002 µM	0.003 µM	0 ng/g	0	0.115 µg/mL
C(=C\c1cn2c(-c3ccc(-c4nnc[nH]4)nc3)cnc(N3CCOCC3)c2n1)/c1ccc2ccccc2n1 [Cpd 91, (E)-4-(5-(6-(2H-1,2,4-Triazol-3-yl)pyridin-3-yl)-2-(2-(quinolin-2-yl)vinyl)imidazo[1,2-a]pyrazin-8-yl)morpholine]	0.012 µM	0.003 µM	112 ng/g	0.55	0.209 µg/mL
O=c1[nH]c(-c2ccc(-c3cnc(N4CCOCC4)c4nc(/C=C/c5ccc6ccccc6n5)cn34)cn2)no1 [Cpd 95, (E)-3-(5-(8-Morpholino-2-(2-(quinolin-2-yl)vinyl)imidazo[1,2-a]pyrazin-5-yl)pyridin-2-yl)-1,2,4-oxadiazol-5-ol]	0.005 µM	< 0.001 µM	0 ng/g	0	0.113 µg/mL

More lines, now with the values ahead:

IC50 [1]	IC50 [2]	concentration at 2 h ([3]; brain)	Kp at 2 h [3]	concentration at 2 h ([3]; plasma)	SMILES
0.006 µM	0.003 µM	78.3 ng/g	0.77	0.135 µg/mL	c1ccc2nc(OCc3cn4c(-c5ccc(Sc6cnn[nH]6)nc5)cnc(N5CCOCC5)c4n3)ccc2c1 [Cpd 92, 4-(5-(6-((1H-1,2,3-Triazol-5-yl)thio)pyridin-3-yl)-2-((quinolin-2-yloxy)methyl)imidazo[1,2-a]pyrazin-8-yl)morpholine]
0.051 µM	0.011 µM	57.3 ng/g	2.04	0.0281 µg/mL	c1ccc2nc(OCc3cn4c(-c5ccc(N6CCOCC6)nc5)cnc(N5CCOCC5)c4n3)ccc2c1 [Cpd 131, 4-(5-(8-Morpholino-2-((quinolin-2-yloxy)methyl)imidazo[1,2-a]pyrazin-5-yl)pyridin-2-yl)morpholine]
0.03 µM	0.031 µM	1.85 ng/g	0.58	0.0164 µg/mL	Cc1ccc(-c2cnc(N3CCOCC3)c3nc(COc4ccc5ccccc5n4)cn23)cn1 [Cpd 128, 4-(5-(6-Methylpyridin-3-yl)-2-((quinolin-2-yloxy)methyl)imidazo[1,2-a]pyrazin-8-yl)morpholine methane sulfonic acid salt]
0.054 µM	0.026 µM	108 ng/g	2.99	0.0538 µg/mL	c1ccc2nc(OCc3cn4c(-c5ccc(N6CCNCC6)nc5)cnc(-c5ccc6nc[nH]c6c5)c4n3)ccc2c1 [Cpd 119, 2-((8-(1H-Benzo[d]imidazol-6-yl)-5-(6-(piperazin-1-yl)pyridin-3-yl)imidazo[1,2-a]pyrazin-2-yl)methoxy)quinoline trifluoroacetic acid salt]
